Reference: patent US20080076739A1, “Methods for treating arthritis using triheterocyclic compounds” (Gemin X Biotechnologies Inc., priority 2005, published 2008)
pIC50: −log10 of the molar value. Where a name gives a salt, the structure may show the parent alone. Read-outs that look alike come from different tables or passages of the source.

Columns and labels:
[1] = Shelf stability (precipitation) of formulated compound; assay type: physicochemical; details: 72 hours after preparation; 0.6 mg/mL in 9.6% polyethylene glycol 300, 0.4% polysorbate 20 and 5% dextrose
Procedure: Compound 1 Tartrate salt solubility is equal to 0.1 mg/mL. […] This increase in solubility has a positive impact on the shelf stability of formulated Compound 1.

[2] = test system: human prostatic adenocarcinoma cancer PC3 cells; experiment: Growth of PC3 prostatic tumors in SCID mice; assay type: in vivo; details: 5 consecutive intravenous injections; Compound 1 Mesylate Salt 4.84 μMoles/Kg; Compound 66 4.84 or 14.51 μMoles/Kg (FIG. 6)
Procedure: The human prostatic adenocarcinoma cancer PC3 cells were purchased from the American Type Culture Collection (ATCC). These cells were confirmed to be free of mycoplasma infection. Cells were maintained in the Roswell Park Memorial Institute (RPMI), supplemented with 10% inactivated fetal bovine serum and 1% penicillin-streptomycin-L-Glutamine, under 5% carbon dioxide (CO2) at 37° C. For prostatic-tumor induction, cells were grown lower than 70% confluence in complete medium and then collected with trypsin (Bio Whittaker, Rockland, Me., USA). Cells were then centrifuged and washed 2 times in phosphate buffer solution (PBS) and resuspended in PBS at 1.5×10^6 cells/0.1 mL. PC3 cells were then transplanted subcutaneously into the flank of SCID mice (Charles River Laboratories, Wilmington, Mass., USA), as a suspension of tumor cells (1.5×10^6 cells in 100 μL PBS), under a laminar airflow hood. Eleven (11) days later, the size of each tumor was measured. […] Relative tumor size and volume was calculated as follows: length (cm)×[width (cm)]^2/2. […]

[3] = test system: C33A cervical carcinoma cells; experiment: Cell viability by cellular ATP levels (ViaLight), C33A; assay type: cell-based; details: Homo sapiens; for IC50: C-33-A, read-out: IC50 (μM) C33A, Effect on Cancer Cells Viability
Procedure: (§1) One day after plating, the cells were treated with various concentrations of Compound 1 Tartrate. Stock solutions of the Compound 1 Tartrate were prepared in dimethyl sulfoxide (Sigma-Aldrich Inc., St. Louis, Mo., USA), diluted in the recommended media and then added to the cells. The total dimethyl sulfoxide on the cells was 1%. […] The results were plotted relative to untreated control cells, which were set at a value of 100.
(§2) As depicted in Table 4, these compounds were efficient in decreasing cellular ATP levels in H1299 and C33A cancer cell lines. […], these compounds are believed to have utility in the in vivo methods of the invention, i.e., treatment and prevention of cancer and viral infections, respectively. It should be noted that, although this cell-based assay is believed to be indicative of anti-oncogenic activity in vivo, it is not the only useful assay for evaluating the anti-oncogenic activity of Triheterocyclic Compounds of the invention. In addition, the anti-viral and other biological activity of compounds of the invention can be determined and evaluated in other assay systems known to the skilled artisan.

[4] = test system: PC-3 human prostatic carcinoma cell line; experiment: Cell viability by cellular ATP levels (ViaLight), PC-3; assay type: cell-based; details: PC-3, Prostate, ATP levels 72 h post-treatment, read-out: IC50 of Compound 1 tartrate
Procedure: as §1

[5] = test system: OVCAR-3 human ovarian carcinoma cell line; experiment: Cell viability by cellular ATP levels (ViaLight), OVCAR-3; assay type: cell-based; details: OVCAR-3, Ovary, ATP levels 72 h post-treatment, read-out: IC50 of Compound 1 tartrate
Procedure: as §1

[6] = test system: H460 non-small cell lung cancer cell line; experiment: Cell viability by cellular ATP levels (ViaLight), H460; assay type: cell-based; details: Homo sapiens, NCI-H460; H460, NSCLC; ATP levels 72 h post-treatment; read-out: IC50 of Compound 1 tartrate
Procedure: as §1

[7] = test system: A549 human lung carcinoma cell line; experiment: Cell viability by cellular ATP levels (ViaLight), A549; assay type: cell-based; details: A549, NSCLC, ATP levels 72 h post-treatment, read-out: IC50 of Compound 1 tartrate
Procedure: as §1

[8] = test system: H1299 human non-small cell lung cancer cells; experiment: Cell viability by cellular ATP levels (ViaLight), H1299; assay type: cell-based
Procedure: as §1, §2

[9] = test system: ADR-RES human breast cancer cell line; experiment: Cell viability by cellular ATP levels (ViaLight), NCI/ADR-RES; assay type: cell-based; details: Breast (multi-drug resistant), ATP levels 72 h post-treatment, read-out: IC50 of Compound 1 tartrate
Procedure: as §1

[10] = test system: MCF-7 human breast cancer cell line; experiment: Cell viability by cellular ATP levels (ViaLight), MCF-7; assay type: cell-based; details: MCF7, MCF-7, Breast, ATP levels 72 h post-treatment, read-out: IC50 of Compound 1 tartrate
Procedure: as §1

[11] = test system: SW-480 human adenocarcinoma cell line; experiment: Cell viability by cellular ATP levels (ViaLight), SW-480; assay type: cell-based; details: SW480, SW-480, Colorectal, ATP levels 72 h post-treatment, read-out: IC50 of Compound 1 tartrate
Procedure: as §1

[12] = test system: B16-F1 mouse melanoma cell line; experiment: Cell viability by cellular ATP levels (ViaLight), B16-F1; assay type: cell-based; details: B16-F1, Murine Melanoma, ATP levels 72 h post-treatment, read-out: IC50 of Compound 1 tartrate
Procedure: as §1

[13] = test system: HMEC normal mammary epithelial cells; experiment: Cell viability by cellular ATP levels (ViaLight), HMEC; assay type: cell-based; details: Homo sapiens, Normal Breast, ATP levels 72 h post-treatment, read-out: IC50 of Compound 1 tartrate
Procedure: as §1

[14] = test system: cancer cell lines H1299 and C33A; normal cell lines HMEC and MRC-5; experiment: Cellular ATP levels, cancer cell lines compared with normal cell lines; assay type: cell-based
Procedure: as §1

[15] = test system: C33A human cervical cancer cells; experiment: Growth of C33A cervical tumors in SCID mice; assay type: in vivo, CB17 SCID/SCID mice; details: 4.5 mg/kg IV once a day for five days (FIG. 3)
Procedure: Viability was examined by staining with trypan blue (Gibco, NY, USA) and only flasks with cell viability greater than 95% were used for in vivo studies.
(§3) There were three treatment groups of ten mice each: (a) a negative control group, (b) a positive control group and (c) a group treated with Compound 1 Tartrate.
(§4) Treatments started on day fourteen after C33A cells transplantation. Compound 1 Tartrate was administered IV once daily for five consecutive days at a dose of 4.5 mg/kg. Compound 1 Tartrate was prepared fresh daily in a vehicle solution of 5% Dextrose (Abbot Laboratories, QC, Canada) and 2% polysorbate 20 (Sigma, St. Louis, Mo., USA). The negative control group was treated with vehicle alone. The injection volume for both Compound 1 Tartrate group and the negative control group was 150 μl.
(§5) Observation continued for 40 days after initial tumor implantation.

[16] = Solubility (filtration, LC/MS)
Procedure: To determine whether a compound is soluble in a solution, the solution was filtered on 0.2 μM polytetrafluoroethylene filters (Whatman Inc. Clifton, N.J., USA) and the compound concentration in the filtrate was measured by LC/MS and compared to the expected concentration.
The column used was XTerra MS C18: 50×2.1 mm, 3.5 mm column at 20° C. Samples were injected and separated under the following conditions: The mobile phase “A” consisted of 5 mM ammonium formate, 0.1% formic acid in water and mobile phase “B” consisted of 5 mM ammonium formate, 0.1% formic acid in methanol. […] The Mass Spectrometer system consisted of a Waters ZQ2000 single quadrupole mass spectrometer (Waters, Milford, Mass., USA) equipped with an Electrospray Ionization Source (ES). The mass detector was operated in positive ion mode (ES+) and Selected Ion Recording mode (SIR). Compounds were detected at m/z equal to their respective molecular weight plus 1.

[17] = biological target: T1, human placental alkaline phosphatase (Homo sapiens, UniProt P05187); experiment: Conversion of phosphate pro-drug by human placental alkaline phosphatase; assay type: in vitro ADME; details: 15 μM, 0.02 U/100 μL enzyme, pH 7.4, up to 120 minutes (FIG. 4)
T1 construct: purchased Sigma-Aldrich Canada Ltd
T1 sequence (P05187 23-506): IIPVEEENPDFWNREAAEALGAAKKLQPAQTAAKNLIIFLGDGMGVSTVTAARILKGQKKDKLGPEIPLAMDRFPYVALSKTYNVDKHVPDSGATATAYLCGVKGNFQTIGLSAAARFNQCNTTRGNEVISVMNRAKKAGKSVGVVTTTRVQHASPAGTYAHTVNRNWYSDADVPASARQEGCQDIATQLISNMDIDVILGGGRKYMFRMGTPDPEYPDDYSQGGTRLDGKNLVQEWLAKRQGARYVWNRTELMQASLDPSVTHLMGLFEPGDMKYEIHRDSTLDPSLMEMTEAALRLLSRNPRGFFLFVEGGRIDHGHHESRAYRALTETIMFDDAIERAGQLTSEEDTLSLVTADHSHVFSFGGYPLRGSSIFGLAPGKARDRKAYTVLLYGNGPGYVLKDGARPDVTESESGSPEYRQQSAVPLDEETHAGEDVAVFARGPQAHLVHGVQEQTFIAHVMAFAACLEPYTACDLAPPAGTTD
Procedure: (§6) The conversion into biologically active drug of phosphate pro-drugs by calf intestinal alkaline phosphatase and human placental alkaline phosphatase was measured in vitro using purified enzymes. Purified calf intestinal alkaline phosphatase (Roche Diagnostic Inc. Laval, Quebec, Canada) or human placental alkaline phosphatase (Sigma-Aldrich Canada Ltd. Oakville, Ontario, Canada) was added at a concentration of 0.02 U/100 μL to a solution containing 15 μM of Compound 66, 20 mM Tris-HCl, pH 7.4 and 0.9% NaCl. The solutions were incubated for 30, 60 or 120 minutes. A solution containing 15 μM of Compound 66, 20 mM Tris-HCl, pH 7.4 and 0.9% NaCl was used as a reference (time=0 minutes). To each solution, an equal volume (100 μL) of ice-cold acetonitrile was added, and then the mixture was vortexed and transferred to glass vials. A standard concentration curve of the pro-drug and the drug was prepared in 10 mM Tris-HCl, pH 7.4, 0.45% NaCl and 50% acetonitrile. All samples were immediately analyzed by LC/MS.

[18] = biological target: T2, calf intestinal alkaline phosphatase (Bos taurus, UniProt P19111); experiment: Conversion of phosphate pro-drug by calf intestinal alkaline phosphatase; assay type: in vitro ADME; details: 15 μM, 0.02 U/100 μL enzyme, pH 7.4, up to 120 minutes (FIG. 5)
T2 construct: purchased Roche Diagnostic Inc
T2 sequence (P19111 20-506): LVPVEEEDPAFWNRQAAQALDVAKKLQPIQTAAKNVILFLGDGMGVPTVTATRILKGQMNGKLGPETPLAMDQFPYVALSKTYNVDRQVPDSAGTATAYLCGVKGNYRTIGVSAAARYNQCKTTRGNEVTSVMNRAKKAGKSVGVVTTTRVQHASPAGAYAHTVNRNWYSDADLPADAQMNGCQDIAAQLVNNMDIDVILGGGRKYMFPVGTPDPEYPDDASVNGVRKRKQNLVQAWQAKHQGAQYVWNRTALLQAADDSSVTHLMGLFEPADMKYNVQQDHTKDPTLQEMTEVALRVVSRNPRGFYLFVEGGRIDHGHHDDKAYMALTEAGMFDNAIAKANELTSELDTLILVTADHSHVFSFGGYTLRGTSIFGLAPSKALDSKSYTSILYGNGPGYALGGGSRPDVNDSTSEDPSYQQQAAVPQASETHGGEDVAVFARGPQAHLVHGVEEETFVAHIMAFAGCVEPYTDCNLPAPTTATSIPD
Procedure: as §6

[19] = Body weight and deaths of SCID mice bearing C33A tumors; assay type: in vivo, CB17 SCID/SCID mice; details: cisplatin 4 mg/kg IP; days 29 and 32, group of ten mice
Procedure: as §3, §4, §5

[20] = C33A, cellular ATP levels as in Example 2
[21] = NCI-H1299, H1299, cellular ATP levels as in Example 2, read-out: IC50 (μM) H1299, Effect on Cancer Cells Viability
[22] = NCI-H1299, read-out: IC50 (μM) H1299, Effect on Cancer Cells Viability

For COC1=CC(c2cc3ccccc3[nH]2)=N/C1=C\c1[nH]c(C)cc1C [Compound 1 Mesylate Salt], the “Precipitation of the formulation” value [1] was “no evidence of precipitation” and the “Growth of prostatic tumors in mice” value [2] was “significantly reduce the growth of prostatic tumors”.

Work on COC1=CC(c2cc3ccccc3[nH]2)=N/C1=C\c1[nH]c(C)cc1C [Compound 1 tartrate] yielded a pIC50 ([3]; C-33A, Cervix, ATP levels 72 h post-treatment compared to untreated cells, read-out: IC50 of Compound 1 tartrate) of 6.70, a pIC50 [4] of 6.70 and a pIC50 [5] of 6.70. It also gave a pIC50 [6] of 6.52, a pIC50 [7] of 6.40 and a pIC50 ([8]; NCI-H1299, H1299, NSCLC, ATP levels 72 h post-treatment, read-out: IC50 of Compound 1 tartrate) of 6.30. For the same compound, the pIC50 [9] was 6.40, the pIC50 [10] was 6.22 and the pIC50 [11] was 6.70. For the same compound, the pIC50 [12] was 7.22, the pIC50 [13] was 5.40 and the “Lowering of ATP levels in cancer cell lines H1299 and C33A compared with normal cell lines HMEC and MRC-5” value ([14]; 0.5 μM, 72 hours after treatment (FIG. 1)) was “significantly more effective at lowering ATP levels”. The “Efficacy in decreasing cellular ATP levels, cancer cell lines versus HMEC” value ([14]; various concentrations, ten cancer cell lines versus HMEC normal mammary epithelial cell line) was “greater efficacy in decreasing cellular ATP levels in the cancer cell lines” and the “Reduction in tumor growth compared to vehicle” value [15] was “statistically significant (p<0.0001) reduction in tumor growth”.

For COC1=CC(c2cc3ccccc3[nH]2)=N/C1=C\c1[nH]c(C)cc1C [Compound 1], the “Solubility in water (in words)” value ([16]; water) was “poorly soluble in water”.

In the case of COC1=CC(c2cc3ccccc3n2C(=O)Nc2ccc(N(C)C)cc2)=N/C1=C/c1[nH]c(C)cc1C [Compound 52], the IC50 [3, 20] was 1.11 µM and the IC50 [8, 21] was 1.04 µM.

CCOC(=O)COC1=CC(c2cc3ccccc3[nH]2)=N/C1=C\c1[nH]c(C)cc1C [Compound 53] gave an IC50 [3] of 10.2 µM and an IC50 [8, 22] of 10.6 µM.

Work on COc1ccc(NC2=CC(c3cc4ccccc4[nH]3)=N/C2=C\c2[nH]c(C)cc2C)cc1 [Compound 61] yielded an IC50 [3, 20] of 0.93 µM and an IC50 [8, 21] of 1.11 µM.

Compound COC(=O)CCc1c(C)[nH]c(/C=C2/N=C(c3cc4ccccc4[nH]3)C=C2OC)c1C [Compound 63] has an IC50 [3] of 0.548 µM and an IC50 [8, 22] of 0.753 µM.

In the case of COC1=CC(c2cc3ccccc3n2C(=O)CC(C)(C)c2c(C)cccc2OP(=O)(O)O)=N/C1=C/c1[nH]c(C)cc1C [Compound 66], the “Conversion of pro-drug into Compound 1” value [17] was “convert a fraction of the pro-drug”, the “Conversion of pro-drug into Compound 1” value [18] was “convert a fraction of the pro-drug” and the “Growth of prostatic tumors in mice” value [2] was “significantly reduce the growth of prostatic tumors”. For the same compound, the “Solubility, fold greater than Compound 1 Tartrate” value [16] was 100 fold.

With N.N.[Cl][Pt][Cl] [cisplatin] the Deaths [19] was “Two mice died”.
